Measurements taken from patent US12528774B2, “Thiosemicarbazone compounds and uses thereof” (The Regents of the University of California, priority 2019, dated 2026).
Several values for one entry are separate records, joined by “and”; a condition that tells them apart may be missing. Equal entries are not always repeated. Where two headings read alike, the source gives them in different places.

What was measured:
MIAPACA-2 cells = assay: Nucleotide pool measurement by LC-MS/MS-MRM; format: cell-based, human; conditions: 25 nM HCT-13 + Cu(II), 48 hours
Procedure: FIGS. 4A-4G show the chemical genomics screen identifying the replication stress response pathway as an actionable co-dependency of HCT13-treated cells. FIG. 4A: experimental design of a synthetic lethality screen using a library of protein kinase inhibitors against HCT13-treated cells in the presence of Cu(II) (20 μM). FIG. 4B: radar plot of screen results. FIG. 4C: z-score values for kinase inhibitors within the DNA damage response/replication stress response (DDR/RSR) pathway module. FIG. 4D: representative immunoblot of replication stress and cell death biomarkers in MIAPACA2 PDAC cells treated with HCT13 (10 nM)+Cu(II) (20 μM). […]
These observations are indicative of DDR/RSR pathway activation, which was hypothesized to arise from nucleotide insufficiency and/or, given the ability of copper to generate ROS, from ROS-mediated DNA damage. […] To test the former hypothesis, nucleotide levels were measured in treated and non-treated cells using liquid chromatography-tandem mass spectrometry with multiple reaction monitoring (LC-MS/MS-MRM) as previously described by Le et al, Nature Communications 2017, 8(1):1-14. […] These findings indicate that HCT-13 preferentially decreases the dGTP and rGTP pools, potentially via oxidative processes as guanine is the most readily oxidized nucleobase. […]

143 BTK WT cells = assay: Cell cycle analysis in 143 BTK WT cells; format: cell-based; conditions: HCT13 + Cu(II) 20 μM
Procedure: FIG. 3A: Mito Stress Test of MIAPACA2 PDAC cells treated with HCT13 (25 nM)+Cu(II) (20 μM) for 24h. FIG. 3B: electron flow assay in isolated mitochondria treated with HCT-13 (100 nM)+Cu(II) (20 μM) for 1h. FIG. 3C: viability of 143 BTK parental (wild type, WT) and ρ0 cells after 48h of the indicated HCT13 concentration+Cu(II) (20 μM) treatment, assessed with Trypan Blue Staining. FIG. 3D: 48h cell cycle histogram and plots of S-phase arrest plots in 143 BTK WT and 143 BTK ρ0 cells at 24, 48 and 72h following treatment with indicated concentrations of HCT13+Cu(II)(20 μM). (mean±SD, n=2, one-way ANOVA corrected for multiple comparisons by Bonferroni adjustment, * P<0.05; ** P<0.01; *** P<0.001).
Another HCT compound, Dp44mT, was reported to increase AMPK expression and induce ROS, although its cytotoxicity was not attributed to the functionality of the mitochondria. (Ref 50). To determine whether the cytotoxicity of HCT13 was mitochondria-dependent, its effects upon 143 BTK ρ0, an mtDNA-deficient fibroblast cell line, was examined. Both 143 BTK ρ0 and parental (wild type, WT) cells were treated with HCT13+20 μM Cu(II) for 48 hours, after which cell viability was determined through trypan blue staining (FIG. 3C).
Cell cycle: Cell cycle was assessed using Propidium iodide staining at indicated timepoints. Cells were pulsed with EdU 1 h before collection at different time points. […]

MIAPACA2 cells = assay: Proliferation assay (CellTiter-Glo, 72 h) in MIAPACA2 cells; format: cell-based, human; conditions: for IC90: Homo sapiens, MIA PaCa-2, 72 h, MIAPACA2, 72 h
Procedure: IC90 values against MIAPACA2 cells was first determined in normal cell culture conditions (DMEM media and 10% FBS). Compounds were separated into three series (4′ primary amines, 4′ secondary amines, 4′ tertiary amines) to reflect the relative degrees of 4′ amine methylation. […] (Refs 41, 42).
HCT compounds are known to be copper chelators. (Ref. 32). To test whether the compounds described herein were similarly potentiated, the IC90 (+Cu IC90) values were determined against MIAPACA2 cells in media supplemented with physiologically relevant levels of copper (DMEM media+10% FBS+20 μM CuCl2). MIAPACA2 cells were treated with the indicated HCT±20 μM Cu(II) for 72 hours, then cell viability was measured with CellTiter-Glo to determine IC90 values.
(§1) Proliferation assay: Cells were plated in 384-well plates (500 cells/well for adherent cell lines in 30 μl volume). Drugs were serially diluted to the desired concentrations and an equivalent volume of DMSO was added to vehicle control. Following 72 h incubation, ATP content was measured using CellTiter-Glo reagent according to manufacturer's instructions (Promega, CellTiter-Glo Luminescent Cell Viability Assay), and analyzed by SpectraMax luminometer (Molecular Devices). IC50 and IC90 values, concentrations required to inhibit proliferation by 50% and 90% respectively compared to DMSO treated cells, were calculated using Prism 6.0 h (Graphpad Software).
as §1, with “assay.” for “assay:”, “Software). The 430-member protein kinase inhibitor library used for the chemical genomics screen was purchased from Selleckchem, Catalog No. L1200.” for “Software).”

CN(C)C(=S)N/N=C/c1nccc2cc(F)ccc12 (mixture of isomers) [HCT13, (E)-2-((6-Fluoroisoquinolin-1-yl)methylene)-N,N-dimethylhydrazine-1-carbothioamide and (Z)-2-((6-Fluoroisoquinolin-1-yl)methylene)-N,N-dimethylhydrazine-1-carbothioamide]
dGTP and rGTP pools (MIAPACA-2 cells): decreased | S-phase arrest (143 BTK WT cells): marked S-phase arrest | increase in potency under copper supplementation versus non-copper-supplemented IC90 (MIAPACA2 cells; 20 μM CuCl2): greater than 5 fold | antiproliferative potency with Cu(II) supplementation (MIAPACA2 cells; 72 h, Cu(II) 20 μM): highest | IC90 (MIAPACA2 cells; DMEM + 10% FBS + 20 μM CuCl2, read-out: +Cu(II) IC90): 21.6 nM | IC90 (MIAPACA2 cells; DMEM + 10% FBS, no copper supplementation, read-out: IC90): 110 nM | potency relative to non-methylated analog HCT3 (MIAPACA2 cells; IC90 without copper): ~50 fold | potency relative to non-fluorinated analog (MIAPACA2 cells; IC90 without copper, analog of same 4′ amine series (HCT1, HCT6 or HCT11)): ~250 fold and ~270 fold
